# Data: patent publication US20090143279A1 (priority 2007, published 2009)
# Test system: nuOXPHOS transcripts
# Type: cell-based, mouse
# Settings: Conc 20 μM; normalized score vs mock-treated (DMSO) wells
row,Compound,nucOX (composite Z-score)
1,"COc1cc(O)c2c(=O)c(-c3ccc(O)cc3)coc2c1OC [isotectorigenin, 7-methyl ether]",−0.674
2,COc1cc(OC)c2c(=O)cc(-c3ccccc3)oc2c1 [chrysin dimethyl ether],0.444
3,isoduartin methyl ether [reference compound],−0.008

# Same assay, conditions: Conc 27.36 μM; normalized score vs mock-treated (DMSO) wells
row,Compound,nucOX (composite Z-score)
1,c1cncc(C2=NCCC2)c1 [myosmine],0.712

# Same assay, conditions: composite Z-score vs DMSO wells; Conc 20 μM
row,Compound,nucOX
1,CCCCNc1ccc(C(=O)OCCN(C)C)cc1 [tetracaine],−0.376
2,O=c1cc(-c2ccccc2)oc2cc(O)cc(O)c12 [chrysin],0.071
3,CC(=O)N[C@H]1[C@H]([C@@H](O)[C@@H](O)CO)O[C@@](O)(C(=O)O)C[C@@H]1O [N-acetylneuramic acid],1.111

# Same assay, conditions: composite Z-score vs DMSO; Conc 20 μM
row,Compound,nucOX
1,O=C(O)c1cccc(O)c1O [pyrocatechuic acid],−0.324
2,O=c1c2ccccc2oc2ccc(O)cc12 [2-hydroxyxanthone],−0.173

# Test system: mtOXPHOS transcripts
# Type: cell-based, mouse
# Settings: Conc 20 μM; normalized score vs mock-treated (DMSO) wells
row,Compound,mitoOX (composite Z-score)
1,"COc1cc(O)c2c(=O)c(-c3ccc(O)cc3)coc2c1OC [isotectorigenin, 7-methyl ether]",−0.360
2,COc1cc(OC)c2c(=O)cc(-c3ccccc3)oc2c1 [chrysin dimethyl ether],0.470
3,isoduartin methyl ether [reference compound],−0.434

# Same assay, conditions: Conc 27.36 μM; normalized score vs mock-treated (DMSO) wells
row,Compound,mitoOX (composite Z-score)
1,c1cncc(C2=NCCC2)c1 [myosmine],−0.195

# Same assay, conditions: composite Z-score vs DMSO wells; Conc 20 μM
row,Compound,mitoOX
1,CCCCNc1ccc(C(=O)OCCN(C)C)cc1 [tetracaine],−0.034
2,O=c1cc(-c2ccccc2)oc2cc(O)cc(O)c12 [chrysin],−0.552
3,CC(=O)N[C@H]1[C@H]([C@@H](O)[C@@H](O)CO)O[C@@](O)(C(=O)O)C[C@@H]1O [N-acetylneuramic acid],0.813

# Same assay, conditions: composite Z-score vs DMSO; Conc 20 μM
row,Compound,mitoOX
1,O=C(O)c1cccc(O)c1O [pyrocatechuic acid],−0.367
2,O=c1c2ccccc2oc2ccc(O)cc12 [2-hydroxyxanthone],−0.652

# Test system: reactive oxygen species
# Type: cell-based, mouse
# Settings: Conc 20 μM; normalized score vs mock-treated (DMSO) wells
row,Compound,ROS (composite Z-score)
1,"COc1cc(O)c2c(=O)c(-c3ccc(O)cc3)coc2c1OC [isotectorigenin, 7-methyl ether]",0.644
2,COc1cc(OC)c2c(=O)cc(-c3ccccc3)oc2c1 [chrysin dimethyl ether],1.158
3,isoduartin methyl ether [reference compound],0.599

# Same assay, conditions: Conc 27.36 μM; normalized score vs mock-treated (DMSO) wells
row,Compound,ROS (composite Z-score)
1,c1cncc(C2=NCCC2)c1 [myosmine],1.543

# Same assay, conditions: Table 4; C2C12 myotubes, 48 h, composite Z-score
row,Compound,ROS
1,isoduartin methyl ether [reference compound],0.599

# Same assay, conditions: composite Z-score vs DMSO wells; Conc 20 μM
row,Compound,ROS
1,CCCCNc1ccc(C(=O)OCCN(C)C)cc1 [tetracaine],0.320
2,O=c1cc(-c2ccccc2)oc2cc(O)cc(O)c12 [chrysin],0.949
3,CC(=O)N[C@H]1[C@H]([C@@H](O)[C@@H](O)CO)O[C@@](O)(C(=O)O)C[C@@H]1O [N-acetylneuramic acid],0.063

# Same assay, conditions: composite Z-score vs DMSO; Conc 20 μM
row,Compound,ROS
1,O=C(O)c1cccc(O)c1O [pyrocatechuic acid],1.147
2,O=c1c2ccccc2oc2ccc(O)cc12 [2-hydroxyxanthone],1.660

# Test system: OXPHOS gene expression
# Type: cell-based, mouse
# Settings: Conc 20 μM; normalized score vs mock-treated (DMSO) wells
row,Compound,GE-HTS (composite Z-score)
1,"COc1cc(O)c2c(=O)c(-c3ccc(O)cc3)coc2c1OC [isotectorigenin, 7-methyl ether]",−0.592
2,COc1cc(OC)c2c(=O)cc(-c3ccccc3)oc2c1 [chrysin dimethyl ether],0.480
3,isoduartin methyl ether [reference compound],−0.182

# Same assay, conditions: Conc 27.36 μM; normalized score vs mock-treated (DMSO) wells
row,Compound,GE-HTS (composite Z-score)
1,c1cncc(C2=NCCC2)c1 [myosmine],0.445

# Same assay, conditions: composite Z-score vs DMSO wells; Conc 20 μM
row,Compound,GE-HTS
1,CCCCNc1ccc(C(=O)OCCN(C)C)cc1 [tetracaine],−0.280
2,O=c1cc(-c2ccccc2)oc2cc(O)cc(O)c12 [chrysin],−0.137
3,CC(=O)N[C@H]1[C@H]([C@@H](O)[C@@H](O)CO)O[C@@](O)(C(=O)O)C[C@@H]1O [N-acetylneuramic acid],1.061

# Same assay, conditions: composite Z-score vs DMSO; Conc 20 μM
row,Compound,GE-HTS
1,O=C(O)c1cccc(O)c1O [pyrocatechuic acid],−0.386
2,O=c1c2ccccc2oc2ccc(O)cc12 [2-hydroxyxanthone],−0.364

# Test system: mitochondrial membrane potential
# Type: cell-based, mouse
# Settings: Conc 20 μM; normalized score vs mock-treated (DMSO) wells
row,Compound,ΔΨm (composite Z-score)
1,"COc1cc(O)c2c(=O)c(-c3ccc(O)cc3)coc2c1OC [isotectorigenin, 7-methyl ether]",0.574
2,COc1cc(OC)c2c(=O)cc(-c3ccccc3)oc2c1 [chrysin dimethyl ether],0.541
3,isoduartin methyl ether [reference compound],−0.777

# Same assay, conditions: Conc 27.36 μM; normalized score vs mock-treated (DMSO) wells
row,Compound,ΔΨm (composite Z-score)
1,c1cncc(C2=NCCC2)c1 [myosmine],0.326

# Same assay, conditions: Table 4; C2C12 myotubes, 48 h, JC-1, composite Z-score
row,Compound,ΔΨm
1,isoduartin methyl ether [reference compound],−0.777

# Same assay, conditions: composite Z-score vs DMSO wells; Conc 20 μM
row,Compound,ΔΨm
1,CCCCNc1ccc(C(=O)OCCN(C)C)cc1 [tetracaine],−0.492
2,O=c1cc(-c2ccccc2)oc2cc(O)cc(O)c12 [chrysin],−0.941
3,CC(=O)N[C@H]1[C@H]([C@@H](O)[C@@H](O)CO)O[C@@](O)(C(=O)O)C[C@@H]1O [N-acetylneuramic acid],0.053

# Same assay, conditions: composite Z-score vs DMSO; Conc 20 μM
row,Compound,ΔΨm
1,O=C(O)c1cccc(O)c1O [pyrocatechuic acid],−1.204
2,O=c1c2ccccc2oc2ccc(O)cc12 [2-hydroxyxanthone],−0.245

# Test system: C2C12 myotubes
# Settings: Conc 20 μM; normalized score vs mock-treated (DMSO) wells
row,Compound,Viability (composite Z-score)
1,"COc1cc(O)c2c(=O)c(-c3ccc(O)cc3)coc2c1OC [isotectorigenin, 7-methyl ether]",0.633
2,COc1cc(OC)c2c(=O)cc(-c3ccccc3)oc2c1 [chrysin dimethyl ether],−0.006
3,isoduartin methyl ether [reference compound],−0.603

# Same assay, conditions: Conc 27.36 μM; normalized score vs mock-treated (DMSO) wells
row,Compound,Viability (composite Z-score)
1,c1cncc(C2=NCCC2)c1 [myosmine],−0.497

# Same assay, conditions: Table 4; C2C12 myotubes, 48 h, composite Z-score
row,Compound,Viability
1,isoduartin methyl ether [reference compound],−0.603

# Same assay, conditions: composite Z-score vs DMSO wells; Conc 20 μM
row,Compound,Viability
1,CCCCNc1ccc(C(=O)OCCN(C)C)cc1 [tetracaine],−0.539
2,O=c1cc(-c2ccccc2)oc2cc(O)cc(O)c12 [chrysin],−0.802
3,CC(=O)N[C@H]1[C@H]([C@@H](O)[C@@H](O)CO)O[C@@](O)(C(=O)O)C[C@@H]1O [N-acetylneuramic acid],1.009

# Same assay, conditions: composite Z-score vs DMSO; Conc 20 μM
row,Compound,Viability
1,O=C(O)c1cccc(O)c1O [pyrocatechuic acid],−1.076
2,O=c1c2ccccc2oc2ccc(O)cc12 [2-hydroxyxanthone],−0.402

# Test system: cellular dehydrogenase activity
# Settings: Conc 20 μM; normalized score vs mock-treated (DMSO) wells
row,Compound,MTT (composite Z-score)
1,"COc1cc(O)c2c(=O)c(-c3ccc(O)cc3)coc2c1OC [isotectorigenin, 7-methyl ether]",−1.606
2,COc1cc(OC)c2c(=O)cc(-c3ccccc3)oc2c1 [chrysin dimethyl ether],−1.043
3,isoduartin methyl ether [reference compound],−2.055

# Same assay, conditions: Conc 27.36 μM; normalized score vs mock-treated (DMSO) wells
row,Compound,MTT (composite Z-score)
1,c1cncc(C2=NCCC2)c1 [myosmine],−1.423

# Same assay, conditions: Table 4; C2C12 myotubes, 48 h, composite Z-score
row,Compound,MTT
1,isoduartin methyl ether [reference compound],−2.055

# Same assay, conditions: composite Z-score vs DMSO wells; Conc 20 μM
row,Compound,MTT
1,CCCCNc1ccc(C(=O)OCCN(C)C)cc1 [tetracaine],−0.048
2,O=c1cc(-c2ccccc2)oc2cc(O)cc(O)c12 [chrysin],−1.566
3,CC(=O)N[C@H]1[C@H]([C@@H](O)[C@@H](O)CO)O[C@@](O)(C(=O)O)C[C@@H]1O [N-acetylneuramic acid],−0.118

# Same assay, conditions: composite Z-score vs DMSO; Conc 20 μM
row,Compound,MTT
1,O=C(O)c1cccc(O)c1O [pyrocatechuic acid],−1.800
2,O=c1c2ccccc2oc2ccc(O)cc12 [2-hydroxyxanthone],−1.863

# Test system: cytochrome c
# Sequence (P62897 whole entry): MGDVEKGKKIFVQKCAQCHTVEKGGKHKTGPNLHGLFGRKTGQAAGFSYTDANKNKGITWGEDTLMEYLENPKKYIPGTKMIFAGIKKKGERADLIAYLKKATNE
# Type: cell-based, mouse
# Settings: not given
row,Compound,cyt c
1,CCCCNc1ccc(C(=O)OCCN(C)C)cc1 [tetracaine],−0.536
2,O=c1cc(-c2ccccc2)oc2cc(O)cc(O)c12 [chrysin],0.920

# Same assay, conditions: Conc 20 μM; normalized score vs mock-treated (DMSO) wells
row,Compound,cyt c (composite Z-score)
1,"COc1cc(O)c2c(=O)c(-c3ccc(O)cc3)coc2c1OC [isotectorigenin, 7-methyl ether]",−0.477
2,COc1cc(OC)c2c(=O)cc(-c3ccccc3)oc2c1 [chrysin dimethyl ether],−1.016
3,isoduartin methyl ether [reference compound],0.882

# Same assay, conditions: Conc 27.36 μM; normalized score vs mock-treated (DMSO) wells
row,Compound,cyt c (composite Z-score)
1,c1cncc(C2=NCCC2)c1 [myosmine],1.184

# Same assay, conditions: composite Z-score vs DMSO wells; Conc 20 μM
row,Compound,cyt c
1,CCCCNc1ccc(C(=O)OCCN(C)C)cc1 [tetracaine],0.383
2,O=c1cc(-c2ccccc2)oc2cc(O)cc(O)c12 [chrysin],0.655
3,CC(=O)N[C@H]1[C@H]([C@@H](O)[C@@H](O)CO)O[C@@](O)(C(=O)O)C[C@@H]1O [N-acetylneuramic acid],−0.254

# Same assay, conditions: composite Z-score vs DMSO; Conc 20 μM
row,Compound,cyt c
1,O=C(O)c1cccc(O)c1O [pyrocatechuic acid],−0.018
2,O=c1c2ccccc2oc2ccc(O)cc12 [2-hydroxyxanthone],0.238
